In patent publication US20230287044A1, “NOVEL ANTIBACTERIAL PEPTIDE AND USE THEREOF” (priority 2020, published 2023):
≈ marks a conversion by molar mass, not a printed value. Where two headings read alike, the source gives them in different places. Square brackets hold non-standard residues; d marks the D form. Peptide text beside a SMILES is read from it. * marks the point of attachment. Decanoyl = CCCCCCCCCC(=O)*

Tests used:
[1] = tested on: MRAB (A. baumannii) ATCC BAA 1605; type: cell-based, Acinetobacter baumannii
Method: (§1) The minimum growth inhibitory concentrations of the antibacterial peptides of the present invention weremeasured, and the results are shown in Table 3 below.
(§2) Specifically, the strains were grown in CAMHB until the midlog phase, and then diluted with PBS buffer to 1× 10^6 cfu/ml to prepare the bacterial solution, and the antibacterial peptide prepared in Example 1above was diluted with CAMHB to 80 µM, 40 µM, 20 µM, 10 µM, 5 µM, 2.5 µM, 1.25 µM and 0.63 µM, and then the bacterial solution was treated with the same volume.
(§3) The results are the average value of three independent experiments.

[2] = tested on: MRSA (S. aureus) KCCM 40510; type: cell-based, Staphylococcus aureus; conditions: KCCM 40510, 18 h
Method: as §1, §2, §3

[3] = tested on: MRPA (P. aeruginosa) CCARM 2180; type: cell-based, Pseudomonas aeruginosa
Method: as §1, §2, §3

[4] = tested on: VRE (E. faecalis) ATCC 51575; type: cell-based, Enterococcus faecalis
Method: as §1, §2, §3

[5] = CAMHB, 37° C., 18 hours, average of three experiments

MIC MRSA (S. aureus) KCCM 40510 [2] [µM] | MIC MRPA (P. aeruginosa) CCARM 2180 ([3]; CCARM 2180, 18 h) [µM] | MIC VRE (E. faecalis) ATCC 51575 ([4]; ATCC 51575, 18 h) [µM] | SMILES | other results
10 (≈ 14.8 µg/mL) | >40 | 10 (≈ 14.8 µg/mL) | CCCCCCCCCC(=O)NCCCC[C@@H](NC(=O)[C@@H](CCCCN)NC(=O)[C@@H](CCCNC(=N)N)NC(=O)[C@@H](CC(C)C)NC(=O)[C@@H](C)NC(=O)[C@H](NC(=O)[C@@H](Cc1c[nH]c2ccccc12)NC(=O)[C@@H](CC(C)C)NC(=O)[C@@H](CC(C)C)NC(=O)[C@H](N)Cc1c[nH]c2ccccc12)[C@H](C)CC)C(N)=O [KSH7, wllwialrkk] (H-[dW][dL][dL][dW][dI][dA][dL][dR][dK][dK](Decanoyl)-NH2; N-terminus assumed) | MIC MRAB (A. baumannii) ATCC BAA 1605 ([1]; ATCC BAA 1605, 18 h): >40 µM
2.5 (≈ 3.67 µg/mL) | 10 (≈ 14.7 µg/mL) | 2.5 (≈ 3.67 µg/mL) | CC[C@@H](C)[C@@H](NC(=O)[C@@H](Cc1c[nH]c2ccccc12)NC(=O)[C@H](NC(=O)[C@@H](CC(C)C)NC(=O)[C@H](N)Cc1c[nH]c2ccccc12)[C@H](C)CC)C(=O)NCC(=O)N[C@H](CC(C)C)C(=O)N[C@H](CCCNC(=N)N)C(=O)N[C@H](CCCCN)C(=O)N[C@H](CCCCN)C(=O)N[C@H](CCCNC(=N)N)C(N)=O [KSH I, wliwiglrkk r] (H-[dW][dL][dI][dW][dI]G[dL][dR][dK][dK][dR]-NH2; N-terminus assumed) | MIC MRAB (A. baumannii) ATCC BAA 1605 ([1]; ATCC BAA 1605, 18 h): 1.25 µM (≈ 1.83 µg/mL)
 | 40 (≈ 52.5 µg/mL) |  | CC[C@@H](C)[C@@H](NC(=O)[C@@H](Cc1c[nH]c2ccccc12)NC(=O)[C@@H](CC(C)C)NC(=O)[C@@H](CC(C)C)NC(=O)[C@H](N)Cc1c[nH]c2ccccc12)C(=O)NCC(=O)N[C@H](CC(C)C)C(=O)N[C@H](CCCNC(=N)N)C(=O)N[C@H](CCCCN)C(=O)N[C@H](CCCCN)C(N)=O [KSH8, wllwiglrkk] (H-[dW][dL][dL][dW][dI]G[dL][dR][dK][dK]-NH2; N-terminus assumed) | 
40 (≈ 51.3 µg/mL) | >40 | 40 (≈ 51.3 µg/mL) | CC[C@@H](C)[C@@H](NC(=O)[C@@H](Cc1c[nH]c2ccccc12)NC(=O)[C@@H](CC(C)C)NC(=O)[C@H](N)CC(C)C)C(=O)NCC(=O)N[C@H](CC(C)C)C(=O)N[C@H](CCCNC(=N)N)C(=O)N[C@H](CCCCN)C(=O)N[C@H](CCCCN)C(=O)N[C@H](CCCNC(=N)N)C(N)=O [KSH13, llwiglrkkr] (H-[dL][dL][dW][dI]G[dL][dR][dK][dK][dR]-NH2; N-terminus assumed) | 
>40 | >40 | >40 | CC[C@@H](C)[C@@H](NC(=O)[C@@H](Cc1c[nH]c2ccccc12)NC(=O)[C@@H](C)NC(=O)[C@@H](C)NC(=O)[C@H](N)Cc1c[nH]c2ccccc12)C(=O)NCC(=O)N[C@H](CC(C)C)C(=O)N[C@H](CCCNC(=N)N)C(=O)N[C@H](CCCCN)C(=O)N[C@H](CCCCN)C(=O)N[C@H](CCCNC(=N)N)C(N)=O [KSH20, waawiglrkkr] (H-[dW][dA][dA][dW][dI]G[dL][dR][dK][dK][dR]-NH2; N-terminus assumed) | 
 | >40 |  | CC[C@@H](C)[C@@H](NC(=O)[C@@H](Cc1c[nH]c2ccccc12)NC(=O)[C@@H](CC(C)C)NC(=O)[C@H](N)CC(C)C)C(=O)N[C@H](C)C(=O)N[C@H](CC(C)C)C(=O)N[C@H](CCCCN)C(=O)N[C@H](CCCCN)C(=O)N[C@H](CCCCN)C(=O)N[C@H](CCCCN)C(N)=O [KSH12, llwialkkkk] (H-[dL][dL][dW][dI][dA][dL][dK][dK][dK][dK]-NH2; N-terminus assumed) | 

The next lines start with the compound.

SMILES | MIC MRSA (S. aureus) KCCM 40510 [2] [µM] | MIC MRPA (P. aeruginosa) CCARM 2180 ([3]; CCARM 2180, 18 h) [µM] | MIC VRE (E. faecalis) ATCC 51575 ([4]; ATCC 51575, 18 h) [µM] | other results
CC[C@@H](C)[C@@H](NC(=O)[C@@H](Cc1c[nH]c2ccccc12)NC(=O)[C@@H](CCCNC(=N)N)NC(=O)[C@@H](CCCNC(=N)N)NC(=O)[C@H](N)CCCNC(=N)N)C(=O)N[C@H](Cc1c[nH]c2ccccc12)C(=O)N[C@@H](C(=O)N[C@@H](C(=O)N[C@H](Cc1c[nH]c2ccccc12)C(N)=O)[C@H](C)CC)[C@H](C)CC [KSH60, rrrwiwiiw] (H-[dR][dR][dR][dW][dI][dW][dI][dI][dW]-NH2; N-terminus assumed) |  |  | 0.63 (≈ 0.872 µg/mL) | 
CC[C@@H](C)[C@@H](NC(=O)[C@@H](Cc1c[nH]c2ccccc12)NC(=O)[C@@H](CC(C)C)NC(=O)[C@H](N)Cc1c[nH]c2ccccc12)C(=O)N[C@H](Cc1c[nH]c2ccccc12)C(=O)N[C@H](CCCNC(=N)N)C(=O)N[C@H](CCCNC(=N)N)C(=O)N[C@H](CCCNC(=N)N)C(N)=O [KSH41, wlwiwrrr] (H-[dW][dL][dW][dI][dW][dR][dR][dR]-NH2; N-terminus assumed) | 2.5 (≈ 3.18 µg/mL) |  |  | 
CC[C@@H](C)[C@@H](NC(=O)[C@H](N)Cc1c[nH]c2ccccc12)C(=O)N[C@@H](C(=O)N[C@H](Cc1c[nH]c2ccccc12)C(=O)N[C@@H](C(=O)N[C@H](Cc1c[nH]c2ccccc12)C(=O)N[C@H](CCCNC(=N)N)C(=O)N[C@H](CCCNC(=N)N)C(=O)N[C@H](CCCNC(=N)N)C(N)=O)[C@H](C)CC)[C@H](C)CC [KSH61, wiiwiwrrr] (H-[dW][dI][dI][dW][dI][dW][dR][dR][dR]-NH2; N-terminus assumed) |  |  | 0.63 (≈ 0.872 µg/mL) | 
CC(C)C[C@@H](NC(=O)[C@H](N)Cc1c[nH]c2ccccc12)C(=O)N[C@@H](C(=O)N[C@H](Cc1c[nH]c2ccccc12)C(=O)N[C@H](CO)C(=O)N[C@H](Cc1c[nH]c2ccccc12)C(=O)N[C@H](CCCNC(=N)N)C(=O)N[C@H](CCCNC(=N)N)C(=O)N[C@H](CCCNC(=N)N)C(N)=O)C(C)C [KSH39, wlvwswrrr] (H-[dW][dL][dV][dW][dS][dW][dR][dR][dR]-NH2; N-terminus assumed) |  | >40 |  | 
CC[C@H](C)[C@H](NC(=O)CN)C(=O)NCC(=O)N[C@@H](C)C(=O)N[C@H](C(=O)N[C@@H](CC(C)C)C(=O)N[C@@H](CCCCN)C(=O)N[C@H](C(=O)N[C@@H](CC(C)C)C(=O)N[C@H](C(=O)N[C@H](C(=O)NCC(=O)N[C@@H](CC(C)C)C(=O)N1CCC[C@H]1C(=O)N[C@@H](C)C(=O)N[C@@H](CC(C)C)C(=O)N[C@H](C(=O)N[C@@H](CO)C(=O)N[C@@H](Cc1c[nH]c2ccccc12)C(=O)N[C@H](C(=O)N[C@@H](CCCCN)C(=O)N[C@@H](CCCNC(=N)N)C(=O)N[C@@H](CCCCN)C(=O)N[C@@H](CCCNC(=N)N)C(=O)N[C@@H](CCC(N)=O)C(=O)N[C@@H](CCC(N)=O)C(N)=O)[C@@H](C)CC)[C@@H](C)CC)[C@@H](C)O)[C@@H](C)O)C(C)C)C(C)C [Melittin, reference compound] |  |  |  | MIC MRAB (A. baumannii) ATCC BAA 1605 [1, 5]: 1.25 µM (≈ 3.56 µg/mL); MIC MRPA (P. aeruginosa) CCARM 2180 [3, 5]: >40 µM; MIC VRE (E. faecalis) ATCC 51575 [4, 5]: 1.25 µM (≈ 3.56 µg/mL)
CC(C)C[C@@H](NC(=O)[C@H](N)Cc1c[nH]c2ccccc12)C(=O)N[C@@H](C(=O)N[C@H](Cc1c[nH]c2ccccc12)C(=O)N[C@H](CCCCN)C(=O)N[C@H](Cc1c[nH]c2ccccc12)C(=O)N[C@H](CCCNC(=N)N)C(=O)N[C@H](CCCNC(=N)N)C(=O)N[C@H](CCCNC(=N)N)C(N)=O)C(C)C [KSH37, wlvwkwrrr] (H-[dW][dL][dV][dW][dK][dW][dR][dR][dR]-NH2; N-terminus assumed) |  | 40 (≈ 55.4 µg/mL) | 5 (≈ 6.92 µg/mL) | 
